Assay results taken from patent publication US20110086759A1, “CHEMICAL COMPOUNDS” (SYNGENTA CROP PROTECTION, INC., priority 2007, published 2011).

Experiments:
Type in all cases: in vivo
[1] = system: Setaria faberi (SETFA); test: Post-emergence biological efficacy, glasshouse pot test; conditions: 312 h, Rate 1,000 g/ha, post-emergence spray, evaluated after 13 days (100=total damage to plant; 0=no damage to plant), read-out: Percentage damage caused to weed species, post-emergence, SETFA
In short: (§1)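 Plants were sown in standard soil and grown 8 days in a glasshouse (24/16° C. day/night, 14 hours light, 65% humidity), then sprayed post-emergence at 1000 or 250 g/ha from acetone/water (50:50) with 0.5% Tween 20. Damage was scored visually after 13 days (0 = none, 100 = total).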

[2] = system: Ipomea hederaceae (IPOHE); test: as above; conditions: Ipomoea hederacea, 312 h; Rate 1,000 g/ha; post-emergence spray; evaluated after 13 days (100=total damage to plant; 0=no damage to plant); read-out: Percentage damage caused to weed species, post-emergence, IPOHE
In short: as §1

[3] = system: Solanum nigrum (SOLNI); test: as above; conditions: 312 h, Rate 1,000 g/ha, post-emergence spray, evaluated after 13 days (100=total damage to plant; 0=no damage to plant), read-out: Percentage damage caused to weed species, post-emergence, SOLNI
In short: as §1

[4] = system: Amaranthus retoflexus (AMARE); test: as above; conditions: Amaranthus retroflexus, 312 h; Rate 1,000 g/ha; post-emergence spray; evaluated after 13 days (100=total damage to plant; 0=no damage to plant); read-out: Percentage damage caused to weed species, post-emergence, AMARE
In short: as §1

[5] = system: Alopecurus myosuroides (ALOMY); test: as above; conditions: 312 h, Rate 1,000 g/ha, post-emergence spray, evaluated after 13 days (100=total damage to plant; 0=no damage to plant), read-out: Percentage damage caused to weed species, post-emergence, ALOMY
In short: as §1

[6] = system: Echinochloa crus-galli (ECHCG); test: as above; conditions: 312 h, Rate 1,000 g/ha, post-emergence spray, evaluated after 13 days (100=total damage to plant; 0=no damage to plant), read-out: Percentage damage caused to weed species, post-emergence, ECHCG
In short: as §1

[7] = system: Setaria faberi (SETFA); test: Pre-emergence biological efficacy, glasshouse pot test; conditions: 312 h, pre-emergence, rate 1,000 g/ha, evaluated after 13 days (100=total damage to plant; 0=no damage), read-out: Percentage damage caused to weed species, SETFA
In short: (§2)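 Seeds sown in standard soil in pots, held one day in glasshouse (24/16 °C day/night, 14 h light, 65% humidity), then sprayed with aqueous solution from acetone/water (50:50) formulation with 0.5% Tween 20 at 1000 or 250 g/ha. Damage scored after 13 days (0 = none, 100 = total).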

[8] = system: Ipomea hederaceae (IPOHE); test: as above; conditions: Ipomoea hederacea, 312 h; pre-emergence, rate 1,000 g/ha, evaluated after 13 days (100=total damage to plant; 0=no damage); read-out: Percentage damage caused to weed species, IPOHE
In short: as §2

[9] = system: Solanum nigrum (SOLNI); test: as above; conditions: 312 h, pre-emergence, rate 1,000 g/ha, evaluated after 13 days (100=total damage to plant; 0=no damage), read-out: Percentage damage caused to weed species, SOLNI
In short: as §2

[10] = system: Amaranthus retoflexus (AMARE); test: as above; conditions: Amaranthus retroflexus, 312 h; pre-emergence, rate 1,000 g/ha, evaluated after 13 days (100=total damage to plant; 0=no damage); read-out: Percentage damage caused to weed species, AMARE
In short: as §2

[11] = system: Alopecurus myosuroides (ALOMY); test: as above; conditions: 312 h, pre-emergence, rate 1,000 g/ha, evaluated after 13 days (100=total damage to plant; 0=no damage), read-out: Percentage damage caused to weed species, ALOMY
In short: as §2

[12] = system: Echinochloa crus-galli (ECHCG); test: as above; conditions: 312 h, pre-emergence, rate 1,000 g/ha, evaluated after 13 days (100=total damage to plant; 0=no damage), read-out: Percentage damage caused to weed species, ECHCG
In short: as §2

SMILES	pest or weed control at 1000 g/ha [1] [%]	pest or weed control at 1000 g/ha [2] [%]	pest or weed control at 1000 g/ha [3] [%]	pest or weed control at 1000 g/ha [4] [%]	pest or weed control at 1000 g/ha [5] [%]	pest or weed control at 1000 g/ha [6] [%]	pest or weed control at 1000 g/ha [7] [%]	pest or weed control at 1000 g/ha [8] [%]	pest or weed control at 1000 g/ha [9] [%]	pest or weed control at 1000 g/ha [10] [%]	pest or weed control at 1000 g/ha [11] [%]	pest or weed control at 1000 g/ha [12] [%]
O=C(OCc1ccccc1)c1nc(C2CC2)nc(NCc2ccco2)c1Cl [Compound 200-125]	80	90	90	100	30	70	70	100	100	100	50	70
COC(=O)c1nc(Cl)nc(NC2CC2)c1Cl [Compound 207-30, 4-Cyclopropylamino-2,5-dichloro-6-methoxycarbonyl-pyrimidine]	0	20	10	0	10	0	0	0	0	0	0	0
COC(=O)c1nc(Cl)nc(NCC2CC2)c1Cl [Compound 207-31, 4-Cyclopropylmethyl-amino-2,5-dichloro-6-methoxycarbonyl-pyrimidine]	40	10	60	50	10	0	0	0	10	20	0	0
COC(=O)c1nc(Cl)nc(NCc2ccccc2)c1Cl [Compound 207-35, 2,5-Dichloro-6-methoxycarbonyl-4-phenylmethylamino-pyrimidine]	30	10	60	50	30	20	0	10	0	30	10	10
COC(=O)c1nc(Cl)nc(NCc2ccc(C)o2)c1Cl [Compound 207-50, 2,5-Dichloro-6-methoxycarbonyl-4-(5-methylfuran-2-ylmethylamino)-pyrimidine]	0	70	80	40	0	0	0	40	80	60	0	0
COC(=O)c1nc(-c2ccc(Cl)cc2C)nc(NCc2ccco2)c1Cl [Compound 213-48, 5-Chloro-2-(4-chloro-2-methylphenyl)-4-(furan-2-yl-methyl-amino)-6-methoxy-carbonylpyrimidine]	10	0	10	100	0	0	10	0	0	70	10	0
COC(=O)c1nc(-c2ccc(Cl)cc2OC)nc(NCc2ccco2)c1Cl [Compound 214-48, 5-Chloro-2-(4-chloro-2-methoxyphenyl)-4-(furan-2-yl-methyl-amino)-6-methoxy-carbonylpyrimidine]	10	30	70	100	30	0	10	0	20	100	20	0
COC(=O)c1nc(-c2ccc(Cl)c(C)c2)nc(NCc2ccco2)c1Cl [Compound 216-48, 5-Chloro-2-(4-chloro-3-methylphenyl)-4-(furan-2-ylmethyl-amino)-6-methoxy-carbonylpyrimidine]	10	30	60	100	10	30	30	0	30	30	0	30
COC(=O)c1nc(-c2ccc(Cl)c(C(F)(F)F)c2)nc(NCc2ccco2)c1Cl [Compound 217-48, 5-Chloro-2-(4-chloro-3-trifluoromethyl-phenyl)-4-(furan-2-ylmethylamino)-6-methoxycarbonyl-pyrimidine]	20	30	70	80	10	0	20	0	50	20	20	0
COC(=O)c1nc(-c2ccc(Cl)cc2F)nc(NCc2ccco2)c1Cl [Compound 218-48, 5-Chloro-2-(4-chloro-2-fluorophenyl)-4-(furan-2-yl-methyl-amino)-6-methoxy-carbonylpyrimidine]	80	90	90	100	60	60	70	50	90	100	70	50
COC(=O)c1nc(-c2ccc(Cl)c([N+](=O)[O-])c2)nc(NCc2ccco2)c1Cl [Compound 219-48, 5-Chloro-2-(4-chloro-3-nitrophenyl)-4-(furan-2-yl-methyl-amino)-6-methoxycarbonyl-pyrimidine]	20	0	30	20	0	0	0	0	0	20	0	0
